Experimental data published in patent US7326732B2, “EP2 receptor agonists” (Pharmagene Laboratories Limited, priority 2004, dated 2008).
Where two headings read alike, the source gives them in different places.

Legend:
human EP2 receptor = target: T1, human EP2 receptor (Homo sapiens, UniProt P43116); experiment: Binding ability to human EP receptors ([3H]PGE2 displacement), EP2
T1 construct: expressed in transfected cells
In short: (§1)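 Membranes from cells stably expressing human EP2, EP3 or EP4 incubated to equilibrium with [3H]PGE2 and compound at 0.1 to 10 000 nM. Non-specific binding defined with 10 uM PGE2; bound label separated by vacuum filtration and quantified by scintillation counting.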

human EP4 receptor = target: T2, human EP4 receptor (Homo sapiens, UniProt P35408); experiment: Binding ability to human EP receptors ([3H]PGE2 displacement), EP4; conditions: membranes expressing human EP4; [3H]PGE2 1 nM; Cheng-Prusoff; read-out: pKi (M) EP4 (converted)
T2 construct: expressed in transfected cells
In short: as §1

human EP3 receptor = target: T3, human EP3 receptor (Homo sapiens, UniProt P43115); experiment: Binding ability to human EP receptors ([3H]PGE2 displacement), EP3; conditions: membranes expressing human EP3; [3H]PGE2 2.5 nM; Cheng-Prusoff; read-out: pKi (M) EP3 (converted)
T3 construct: expressed in transfected cells
T3 sequence (P43115 1-390): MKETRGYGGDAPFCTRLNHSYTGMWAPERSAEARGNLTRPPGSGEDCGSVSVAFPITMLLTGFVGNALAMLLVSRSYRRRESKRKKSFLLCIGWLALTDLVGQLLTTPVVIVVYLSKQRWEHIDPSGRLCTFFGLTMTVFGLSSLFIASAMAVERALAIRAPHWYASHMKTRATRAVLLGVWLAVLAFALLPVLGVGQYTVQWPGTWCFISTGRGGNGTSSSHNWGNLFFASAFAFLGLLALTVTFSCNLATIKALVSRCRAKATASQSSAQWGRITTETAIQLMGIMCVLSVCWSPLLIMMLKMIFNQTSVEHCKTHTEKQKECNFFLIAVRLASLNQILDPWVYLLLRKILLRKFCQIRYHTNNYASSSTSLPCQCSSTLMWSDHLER
In short: as §1

[1] = target: T4, human EP2 prostanoid receptors (Homo sapiens, UniProt P43116); experiment: Agonist activity at recombinant human EP2 prostanoid receptors (cAMP in HEK-293 clones); format: cell-based; conditions: for activity (EP2 part): functional classification at EP2
T4 construct: expressed in transfected cells; host or cells: HEK-293

[2] = membranes expressing human EP2, [3H]PGE2 3 nM, Cheng-Prusoff, read-out: pKi (M) EP2 (converted)
[3] = HEK-293 stably transfected with human EP2, cAMP accumulation, read-out: pEC50 EP2 (converted)

T1 sequence (P43116 whole entry): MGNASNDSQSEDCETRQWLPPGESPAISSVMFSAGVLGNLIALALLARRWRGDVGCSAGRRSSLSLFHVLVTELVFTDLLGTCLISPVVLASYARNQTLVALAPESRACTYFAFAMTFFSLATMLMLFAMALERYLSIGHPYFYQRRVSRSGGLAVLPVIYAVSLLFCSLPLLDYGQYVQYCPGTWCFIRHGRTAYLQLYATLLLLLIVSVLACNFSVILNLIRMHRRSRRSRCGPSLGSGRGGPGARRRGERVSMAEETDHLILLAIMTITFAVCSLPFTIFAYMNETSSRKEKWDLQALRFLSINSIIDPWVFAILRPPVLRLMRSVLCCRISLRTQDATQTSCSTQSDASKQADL
T4 sequence (P43116 whole entry): as above
T2 sequence (P35408 whole entry): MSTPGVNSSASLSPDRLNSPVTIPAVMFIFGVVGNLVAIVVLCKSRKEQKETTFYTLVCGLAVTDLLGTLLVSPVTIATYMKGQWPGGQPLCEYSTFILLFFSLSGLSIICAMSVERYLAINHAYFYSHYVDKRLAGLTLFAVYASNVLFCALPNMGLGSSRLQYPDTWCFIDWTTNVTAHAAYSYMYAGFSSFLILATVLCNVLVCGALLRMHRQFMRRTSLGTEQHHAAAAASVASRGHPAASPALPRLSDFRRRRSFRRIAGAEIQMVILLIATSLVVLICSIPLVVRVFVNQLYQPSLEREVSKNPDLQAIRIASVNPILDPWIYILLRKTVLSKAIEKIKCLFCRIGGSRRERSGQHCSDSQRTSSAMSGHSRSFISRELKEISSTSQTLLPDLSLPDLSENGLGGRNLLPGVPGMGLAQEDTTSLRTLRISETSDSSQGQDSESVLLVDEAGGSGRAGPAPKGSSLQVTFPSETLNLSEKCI

Structure (SMILES) | Ki (human EP2 receptor; [2]) | Ki (human EP4 receptor) | Ki (human EP3 receptor) | EC50 [1, 3] | activity (EP2 part) [1] | Ki (human EP2 receptor) | EC50 [1]
O=C(O)/C=C/c1cccc(NC(=O)c2csc(-c3cccc(F)c3)n2)c1 [Compound 116, 3-(3-{[2-(3-Fluoro-phenyl)-thiazole-4-carbonyl]-amino}-phenyl)-acrylic acid] | < 1e-07 M | > 1e-05 M | > 1e-05 M | < 0.1 µM | EP2 Agonist | – | –
O=C(O)Cc1cccc(C(=O)Nc2cccc(-c3ccccc3)c2)c1 [Compound 117, [3-(Biphenyl-3-ylcarbamoyl)-phenyl]-acetic acid] | < 1e-06 M | > 1e-05 M | > 1e-05 M | < 10 µM | EP2 Agonist | – | –
Cn1c(C(=O)O)cc2cc(NC(=O)c3ccc(-c4ccccc4)o3)ccc21 [Compound 118, 1-Methyl-5-[(5-phenyl-furan-2-carbonyl)-amino]-1H-indole-2-carboxylic acid] | < 1e-06 M | > 1e-05 M | > 1e-05 M | < 0.1 µM | EP2 Agonist | – | –
O=C(O)/C=C/c1cccc(CC(=O)c2ccc(-c3ccccc3)o2)c1 [Compound 120, 3-{3-[2-Oxo-2-(5-phenyl-furan-2-yl)-ethyl]-phenyl}-acrylic acid] | < 1e-05 M | > 1e-05 M | > 1e-05 M | < 1 µM | EP2 Agonist | – | –
O=C(O)/C=C/c1cccc(OCc2csc(-c3ccccc3)n2)c1 [Compound 121, 3-[3-(2-Phenyl-thiazol-4-ylmethoxy)-phenyl]-acrylic acid] | < 1e-06 M | > 1e-05 M | > 1e-05 M | < 1 µM | EP2 Agonist | – | –
O=C(O)Cc1cccc(NC(=O)c2ccc(-c3cc(F)cc(F)c3)o2)c1 [Compound 127, (3-{[5-(3,5-Difluoro-phenyl)-furan-2-carbonyl]-amino}-phenyl)-acetic acid] | < 1e-07 M | > 1e-05 M | > 1e-05 M | < 0.1 µM | EP2 Agonist | – | –
O=C(O)Cc1cccc(NC(=O)c2ccc(-c3cccc(F)c3)o2)c1 [Compound 128, (3-{[5-(3-fluoro-phenyl)-furan-2-carbonyl]-amino}-phenyl)-acetic acid] | < 1e-06 M | > 1e-05 M | > 1e-05 M | < 0.1 µM | EP2 Agonist | – | –
O=C(O)/C=C/c1cccc(NC(=O)c2cccc(-c3cc(Cl)cc(Cl)c3)n2)c1 [Compound 132, 3-(3-{[6-(3,5-Dichloro-phenyl)-pyridine-2-carbonyl]-amino}-phenyl)-acrylic acid] | < 1e-07 M | > 1e-05 M | > 1e-05 M | < 0.1 µM | EP2 Agonist | – | –
O=C(O)CCc1cccc(NC(=O)c2cccc(-c3cc(Cl)cc(Cl)c3)n2)c1 [Compound 134, 3-(3-{[6-(3,5-Dichloro-phenyl)-pyridine-2-carbonyl]-amino}-phenyl)-propionic acid] | < 1e-07 M | > 1e-05 M | > 1e-05 M | < 0.1 µM | EP2 Agonist | – | –
O=C(Nc1ccc2[nH]c(C(=O)O)cc2c1)c1cccc(-c2cc(Cl)cc(Cl)c2)n1 [Compound 135, 5-{[6-(3,5-Dichloro-phenyl)-pyridine-2-carbonyl]-amino}-1H-indole-2-carboxylic acid] | < 1e-06 M | > 1e-05 M | > 1e-05 M | < 1 µM | EP2 Agonist | – | –
O=C(O)/C=C/c1cccc(NC(=O)c2cccc(-c3cccc(Cl)c3)n2)c1 [Compound 137, 3-(3-{[6-(3-Chloro-phenyl)-pyridine-2-carbonyl]-amino}-phenyl)-acrylic acid] | – | < 1e-06 M | > 1e-05 M | – | EP2 Agonist | < 1e-07 M | < 0.1 µM
O=C(O)COc1cccc(NC(=O)c2cc(-c3cccc(Cl)c3)ccc2F)c1 [Compound 140, {3-[(3′-Chloro-4-fluoro-biphenyl-3-carbonyl)-amino]-phenoxy}-acetic acid] | < 1e-07 M | > 1e-05 M | > 1e-05 M | < 0.1 µM | EP2 Agonist | – | –
O=C(O)/C=C/c1cccc(NC(=O)c2cc(-c3cccc(Cl)c3)ccc2F)c1 [Compound 142, 3-{3-[(3′-Chloro-4-fluoro-biphenyl-3-carbonyl)-amino]-phenyl}-acrylic acid] | < 1e-07 M | > 1e-05 M | > 1e-05 M | < 0.1 µM | EP2 Agonist | – | –
O=C(O)COc1cccc(NC(=O)c2cc(-c3cc(Cl)cc(Cl)c3)ccc2F)c1 [Compound 143, {3-[(3′,5′-Dichloro-4-fluoro-biphenyl-3-carbonyl)-amino]-phenoxy}-acetic acid] | < 1e-07 M | > 1e-05 M | > 1e-05 M | < 0.1 µM | EP2 Agonist | – | –
O=C(O)/C=C/c1cccc(NC(=O)c2ccc(-c3ccc(Cl)cc3)o2)c1 [Compound 146, 3-(3-{[5-(4-Chloro-phenyl)-furan-2-carbonyl]-amino}-phenyl)-acrylic acid] | < 1e-07 M | > 1e-05 M | > 1e-05 M | < 0.1 µM | EP2 Agonist | – | –
O=C(O)CCc1cccc(NC(=O)c2ccc(-c3ccc(Cl)cc3)o2)c1 [Compound 147, 3-(3-{[5-(4-Chloro-phenyl)-furan-2-carbonyl]-amino}-phenyl)-propionic acid] | < 1e-07 M | > 1e-05 M | > 1e-05 M | < 0.1 µM | EP2 Agonist | – | –
O=C(O)CCc1cccc(NC(=O)c2ccc(-c3ccc(F)cc3)o2)c1 [Compound 148, 3-(3-{[5-(4-Fluoro-phenyl)-furan-2-carbonyl]-amino}-phenyl)-propionic acid] | < 1e-07 M | > 1e-05 M | > 1e-05 M | < 0.1 µM | EP2 Agonist | – | –
O=C(O)Cc1cccc(NC(=O)c2cccc(-c3ccc(Cl)cc3)n2)c1 [Compound 150, (3-{[6-(4-Chloro-phenyl)-pyridine-2-carbonyl]-amino}-phenyl)-acetic acid] | < 1e-06 M | > 1e-05 M | > 1e-05 M | < 1 µM | EP2 Agonist | – | –
O=C(O)/C=C/c1cccc(NC(=O)c2cccc(-c3ccc(Cl)cc3)n2)c1 [Compound 151, 3-(3-{[6-(4-Chloro-phenyl)-pyridine-2-carbonyl]-amino}-phenyl)-acrylic acid] | < 1e-07 M | > 1e-05 M | > 1e-05 M | < 0.1 µM | EP2 Agonist | – | –
O=C(O)Cc1cccc(NC(=O)c2cccc(-c3ccc(F)cc3)n2)c1 [Compound 153, (3-{[6-(4-Fluoro-phenyl)-pyridine-2-carbonyl]-amino}-phenyl)-acetic acid] | < 1e-07 M | > 1e-05 M | > 1e-05 M | < 0.1 µM | EP2 Agonist | – | –
O=C(O)COc1cccc(NC(=O)c2cccc(-c3ccc(Cl)cc3)n2)c1 [Compound 154, (3-{[6-(4-Chloro-phenyl)-pyridine-2-carbonyl]-amino}-phenoxy)-acetic acid] | < 1e-07 M | > 1e-05 M | > 1e-05 M | < 0.1 µM | EP2 Agonist | – | –
O=C(O)/C=C/c1cccc(NC(=O)c2cccc(-c3ccc(F)cc3)n2)c1 [Compound 155, 3-(3-{[6-(4-Fluoro-phenyl)-pyridine-2-carbonyl]-amino}-phenyl)-acrylic acid] | < 1e-07 M | > 1e-05 M | > 1e-05 M | < 0.1 µM | EP2 Agonist | – | –
O=C(O)COc1cccc(NC(=O)c2ccc(-c3ccc(Cl)cc3)o2)c1 [Compound 156, (3-{[5-(4-Chloro-phenyl)-furan-2-carbonyl]-amino}-phenoxy)-acetic acid] | < 1e-07 M | > 1e-05 M | > 1e-05 M | < 0.1 µM | EP2 Agonist | – | –
O=C(O)COc1cccc(NC(=O)c2ccc(-c3ccc(F)cc3)o2)c1 [Compound 157, (3-{[5-(4-Fluoro-phenyl)-furan-2-carbonyl]-amino}-phenoxy)-acetic acid] | < 1e-07 M | > 1e-05 M | > 1e-05 M | < 0.1 µM | EP2 Agonist | – | –
O=C(O)COc1cccc(NC(=O)c2cccc(-c3ccc(F)cc3)n2)c1 [Compound 158, (3-{[6-(4-Fluoro-phenyl)-pyridine-2-carbonyl]-amino}-phenoxy)-acetic acid] | < 1e-07 M | < 1e-06 M | > 1e-05 M | < 0.1 µM | EP2 Agonist | – | –
O=C(O)CCc1cccc(NC(=O)c2cccc(-c3ccc(F)cc3)n2)c1 [Compound 159, 3-(3-{[6-(4-Fluoro-phenyl)-pyridine-2-carbonyl]amino}-phenyl)-propionic acid] | < 1e-07 M | > 1e-05 M | > 1e-05 M | < 0.1 µM | EP2 Agonist | – | –
